Entries after “also recorded” stand apart in the source; their conditions may differ. Where a name gives a salt, the structure may show the parent alone. Read-outs that look alike come from different tables or passages of the source.
Experiments:
[1] = tested on: DSS-induced murine colitis; conditions: cited from earlier work
human neutrophils = conditions: by preventing up-regulation of CD11b; cited from earlier work
[2] = cited from earlier work
[3] = tested on: patients with IBD, CD, and UC; assay: Retrospective propensity-matched cohort study (TriNetX), secondary analysis: A/P vs HAV, HCQ, MES; assay type: in vivo, human; conditions: propensity score matched, within 1 year of exposure
Procedure: Using a multi-institutional database, after 1:1 propensity score matching, we identified adult all-cause IBD patients between 2000 and 2019. […] Outcomes were steroid use, hospitalization, or advanced therapy use within 1 year of exposure. The experiments were repeated in Crohn's disease (CD) and ulcerative colitis (UC) patient cohorts. […]
A retrospective cohort study was performed using a de-identified multi-institutional database with 80 contributing healthcare organizations (HCO), including over 113 million patients (TriNetX Research Network, Cambridge, Massachusetts, date of data access Dec. 7, 2023; IRB exempt). TriNetX regularly aggregates clinical data directly from participating HCOs, primarily in the United States, including extensive data quality and accuracy assessment. Institutional information relating to participating HCOs is also de-identified, however, a typical HCO includes a large academic healthcare center with prevalent capabilities for inpatient services, outpatient services, and specialty care services.
A second analysis was performed to identify all adult patients (aged≥18 years) diagnosed with IBD, including Crohn's disease (CD, ICD-10: K50) and/or ulcerative colitis (UC, ICD-10: K51), between Jan. 1, 2000, and Dec. 31, 2019. […] The index event for all groups was the time of the patient's first prescription.
If there were multiple prescriptions, the index event was defined as the date of the first prescription. Information on duration and dosage was not available.
The outcomes of steroid use (yes/no), hospitalization (yes/no), and advanced therapy use (yes/no) were chosen as they are generally regarded as surrogate markers for IBD activity. Steroid use was defined as a prescription for prednisone, methylprednisolone, or budesonide. All-cause hospitalization was used because TriNetX could not specify a cause for hospitalization. Advanced therapy use was defined as a prescription for adalimumab, certolizumab pegol, golimumab, infliximab, vedolizumab, ustekinumab, tofacitinib, azathioprine, mercaptopurine, or methotrexate. Information on the duration and dosage of outcome drugs was also not available.
This created a potential for bias in that many patients may experience one or more of the measured outcomes (steroid use, hospitalization, or advanced therapy use) within the first year of their diagnosis as standard of care. Indexing those patients to a time other than the time of their original diagnosis, for example, to a time when they received a prescription for a different medication, would mitigate that bias.
Comparators that would not only mitigate the index bias, but also address other potential biases, were specifically chosen. […] HAV is also frequently prescribed for travelers, and there happens to be a high degree of geographic overlap among hepatitis A and malaria-endemic regions.
We performed 1:1 greedy nearest neighbor propensity score matching (caliper of 0.1 standard deviations) to balance cohorts on age, sex, race, comorbid conditions (including cardiovascular, pulmonary, rheumatologic, and renal co-morbidities included in the Charlson Comorbidity Index), presence of prior hospitalization, and use of steroids and IBD advanced therapy (as defined above) to control for baseline disease severity and prior presence of any of the measured outcomes (Table 1, Supplemental Table 1). Differences between groups were calculated using either an independent t-test or a chi-square test as appropriate. Estimates of odds ratios (OR), and 95% confidence intervals (CI) were used to describe the outcome risks. P-values of α<0.05 were considered statistically significant.

[4] = tested on: patients with ulcerative colitis; conditions: small human trial; cited from earlier work
murine colitis = conditions: mouse, in vivo, cited from earlier work
[5] = tested on: ulcerative colitis patient
UC patients = conditions: 60 UC patients; cited from earlier work
[6] = Crohn's disease, n = 381 per cohort, A/P vs HCQ
[7] = all-cause IBD, n = 947 per cohort, A/P vs HCQ
[8] = ulcerative colitis, n = 405 per cohort, A/P vs HCQ
[9] = Crohn's disease, n = 313 per cohort, A/P vs MES
[10] = all-cause IBD, n = 624 per cohort, A/P vs MES
[11] = ulcerative colitis, n = 260 per cohort, A/P vs MES

O=C1C(O)=C([C@H]2CC[C@H](c3ccc(Cl)cc3)CC2)C(=O)c2ccccc21 [Atovaquone, trans-2-[4-(4-chlorophenyl)cyclohexyl]-3-hydroxy-1,4-naphthalenedione]
colitis (DSS-induced murine / experimental) ([1]; by reducing mucosal neutrophil accumulation): attenuates; also recorded: promoted the resolution
S100A9 and CD11b expression on neutrophil surfaces ([1]; mouse, in vivo): reduction
human neutrophil chemotaxis (human neutrophils): directly suppressed
solubility in water [2]: practically insoluble

CCN(CCO)CCCC(C)Nc1ccnc2cc(Cl)ccc12 (stereo not drawn) [HCQ, hydroxychloroquine]
all-cause hospitalization, number of patients [3, 6]: 43
steroid use, number of patients [3, 6]: 194
advanced therapy use, number of patients [3, 7]: 277
all-cause hospitalization, number of patients [3, 7]: 118
steroid use, number of patients [3, 7]: 485
advanced therapy use, number of patients [3, 8]: 99
all-cause hospitalization, number of patients [3, 8]: 60
steroid use, number of patients [3, 8]: 211
efficacy vs placebo in ulcerative colitis [4]: failed to demonstrate superiority over placebo
murine colitis and associated cancer (murine colitis): showed efficacy; also recorded: attenuate murine colitis
murine colitis and associated cancer (murine colitis; listed as Hydroxychloroquine): decrease the incidence

Nc1ccc(O)c(C(=O)O)c1 [MES, mesalamine]
all-cause hospitalization, number of patients [3, 9]: 53
steroid use, number of patients [3, 9]: 162
advanced therapy use, number of patients [3, 10]: 182
all-cause hospitalization, number of patients [3, 10]: 92
steroid use, number of patients [3, 10]: 307
advanced therapy use, number of patients [3, 11]: 31
all-cause hospitalization, number of patients [3, 11]: 47
steroid use, number of patients [3, 11]: 111
therapeutic effect on colitis ([5]; 4.8 grams generic tablets daily, day 1): no therapeutic effect
adverse event ([5]; in vivo): moderate costochondral chest pain

[H]/N=C(\N/C(=N/[H])Nc1ccc(Cl)cc1)NC(C)C [Proguanil hydrochloride, 1-(4-chlorophenyl)-5-isopropyl-biguanide]
solubility in water [2]: sparingly soluble

CCN(CC)CCCC(C)Nc1ccnc2cc(Cl)ccc12 (stereo not drawn) [chloroquine]
adverse events compared to sulfasalazine (UC patients): fewer
remission and response rates compared to sulfasalazine (UC patients): similar

C[C@]12C=CC(=O)C=C1CC[C@@H]1[C@@H]2C(=O)C[C@@]2(C)[C@H]1CC[C@]2(O)C(=O)CO [prednisone]
colitis symptoms ([5]; 40 mg daily, after 7 days): no improvement

CO[C@H]1/C=C/O[C@@]2(C)Oc3c(C)c(O)c4c(O)c(c5c(nc6cc(C)ccn65)c4c3C2=O)NC(=O)/C(C)=C\C=C\[C@H](C)[C@H](O)[C@@H](C)[C@@H](O)[C@@H](C)[C@H](OC(C)=O)[C@@H]1C [rifaximin]
colitis symptoms ([5]; 10-day course, 275 mg TID): symptoms persisted
